Among the test systems are CCRF-CEM; HCC 2998; ACHN; HCT-116; T47D; LOX IMVI; K562; UACC-257; SK-OV-3; NCI-H226; HOP-92; Hs-578T; HCT-15; SR; CAKI-1; M14; NCI/ADR-RES; MDA-N; SW-620; SF-539.
Experiment in all cases: DTP human tumour cell line panel, 48 h

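Protocol summary: plate cells (96-well), add compound at 5 concentrations, incubate 48 h, interpolate endpoints linearly. Here, GI50 denotes the concentration required for 50% inhibition of growth.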 Calls of active or inactive are those of the source. Rule as the data show it: active = GI50 up to about 1.1 µM and inactive = higher. Where a SMILES comes first, the peptide text is derived from it. [ ]: non-standard residue; d: D form. The star is where a group is joined. ξ: configuration not given here. ξPhe(4-NO2) = NC(Cc1ccc([N+](=O)[O-])cc1)C(=O)O; Boc = CC(C)(C)OC(=O)*

On to `CCN(CC)/C(Cl)=C(Cl)\C(=C1\Nc2ccc(OC)cc21)[N+](=O)[O-]`, for which the GI50 (in general, the concentration that inhibits growth by half) in the assay with CCRF-CEM is 20.1 µM (inactive); with HCC 2998, > 100 µM (inactive); in the assay on ACHN it was 98.2 µM (inactive); in the assay with HCT-116, 44.6 µM (inactive); in the assay on T47D, 24.6 µM (inactive); in the assay with LOX IMVI, 38.7 µM (inactive). Moreover, the GI50 is 31.7 µM (inactive) in the assay with K562; 75.5 µM (inactive) with UACC-257; 75.5 µM (inactive) in the assay on SK-OV-3; 18.9 µM (inactive) in the assay with NCI-H226; > 100 µM (inactive) in the assay with HOP-92; 78.7 µM (inactive) with Hs-578T. The GI50 in the assay with HCT-15 was 52.7 µM; in the assay on SR it was 16.6 µM (inactive); in the assay on CAKI-1, 59 µM (inactive); in the assay with M14 it was > 100 µM (inactive); in the assay with NCI/ADR-RES, 70.6 µM (inactive); with MDA-N it was 50.4 µM (inactive). Besides, the GI50 in the assay on SW-620 is 43 µM (inactive).
Regarding `c1ccc2c(NCCCCCCNc3c4ccccc4nc4ccccc34)c3ccccc3nc2c1`, the GI50 with CCRF-CEM is 0.0471 µM (active); with HCC 2998 it was 0.171 µM (active); in the assay on ACHN, 0.23 µM (active); in the assay with HCT-116, 0.0392 µM (active); in the assay on T47D, 0.647 µM (active); in the assay on LOX IMVI it was 0.105 µM (active). In addition, the GI50 in the assay with K562 is 0.0649 µM (active); in the assay on UACC-257, 2.7 µM (inactive); in the assay with SK-OV-3 it was 1.01 µM (active); with NCI-H226, 0.587 µM (active); in the assay with HOP-92 it was 0.24 µM (active); in the assay with Hs-578T, 0.682 µM (active). Moreover, the GI50 in the assay with HCT-15 is 4.34 µM; in the assay with SR, 0.0288 µM (active); in the assay on CAKI-1, 1.53 µM (inactive); in the assay on M14, 1.23 µM (inactive); with NCI/ADR-RES it was 17.9 µM (inactive); in the assay with MDA-N, 0.288 µM (active). Moreover, the 50% growth inhibitory concentration (GI50) with SW-620 is 0.0458 µM (active); in the assay with SF-539, 0.108 µM (active).
On to `CC(CO)CCNc1ncnc2c1ncn2CCC#N` (configuration not stated), for which the GI50 in the assay with CCRF-CEM, in the assay with HCC 2998, in the assay with ACHN, in the assay on HCT-116, in the assay with T47D and in the assay with LOX IMVI was > 100 µM (inactive) throughout. For the same compound, the GI50 with K562, in the assay on UACC-257, with SK-OV-3, in the assay on NCI-H226, in the assay with HOP-92 and with Hs-578T was > 100 µM (inactive) in each case. Besides, the GI50 with SR, with CAKI-1, with M14, in the assay on NCI/ADR-RES, with MDA-N and in the assay on SW-620 was > 100 µM (inactive) in each case. In the assay with SF-539, the GI50 is > 100 µM (inactive).
Turning to `COc1ccc(/C=C(/C(=O)c2ccc(Cl)cc2)N2C=CC=CC2=C(C#N)C#N)cc1OC`, the 50% growth inhibitory concentration (GI50) in the assay with CCRF-CEM was 0.115 µM (active); in the assay with HCC 2998, 1.99 µM (inactive); in the assay with ACHN, 3.31 µM (inactive); in the assay with HCT-116 it was 2.06 µM (inactive); with T47D, 4.06 µM (inactive); in the assay with LOX IMVI, 3.39 µM (inactive). Besides, the concentration for 50% growth inhibition (GI50) in the assay with K562 was 0.698 µM (active); in the assay with UACC-257 it was 6 µM (inactive); in the assay with SK-OV-3 it was 24.4 µM (inactive); in the assay with NCI-H226, 17.8 µM (inactive); with HOP-92, 3.51 µM (inactive); in the assay with Hs-578T it was 1.66 µM (inactive). Moreover, the GI50 is 2.17 µM in the assay with HCT-15; 2.35 µM (inactive) with SR; 1.31 µM (inactive) in the assay on CAKI-1; 3.7 µM (inactive) with M14; 10.4 µM (inactive) in the assay on NCI/ADR-RES; 4.55 µM (inactive) in the assay with MDA-N. The GI50 in the assay with SW-620 is 1.91 µM (inactive); in the assay on SF-539, 3.92 µM (inactive).
On to `CCCCCCCCCCCCCCCCCCNc1ccn(C2OC(CO)C(O)C2O)c(=O)n1` (configuration not stated), for which the GI50 in the assay with CCRF-CEM was 5.37 µM (inactive); in the assay on HCC 2998 it was 50.5 µM (inactive); with ACHN, > 100 µM (inactive); in the assay on HCT-116 it was > 100 µM (inactive); with T47D, > 40.7 µM (inactive); with LOX IMVI it was > 62.8 µM (inactive). The GI50 with K562 was > 73.8 µM (inactive); in the assay on UACC-257, > 100 µM (inactive); in the assay with SK-OV-3 it was > 100 µM (inactive); in the assay on NCI-H226, > 100 µM (inactive); in the assay with HOP-92 it was > 100 µM (inactive); in the assay on Hs-578T, > 28.8 µM (inactive). Further, the GI50 with HCT-15 is more than 100 µM; with SR, 23.7 µM (inactive); with CAKI-1, > 100 µM (inactive); in the assay on M14 it was 55.5 µM (inactive); with NCI/ADR-RES, > 100 µM (inactive); in the assay with MDA-N, > 100 µM (inactive). Moreover, the GI50 in the assay with SW-620 and with SF-539 was > 100 µM (inactive) throughout.
Regarding `O=C(CC(=O)N(C(=O)c1ccccc1)c1ccc(Cl)cc1)N/N=C\c1cc(/N=N/c2ccccc2Cl)ccc1O`, the GI50 is 25.1 µM (inactive) with CCRF-CEM; > 100 µM (inactive) in the assay on HCC 2998; > 100 µM (inactive) in the assay with ACHN; 75 µM (inactive) in the assay on HCT-116; 51.6 µM (inactive) in the assay with T47D; > 100 µM (inactive) with LOX IMVI. For the same compound, the GI50 in the assay on K562 was 17.3 µM (inactive); in the assay with SK-OV-3, 52.1 µM (inactive); with NCI-H226 it was > 100 µM (inactive); in the assay on HOP-92, 23.5 µM (inactive); in the assay with Hs-578T, 20 µM (inactive); in the assay on HCT-15, 75.7 µM. The GI50 with SR is 17.9 µM (inactive); with CAKI-1, > 100 µM (inactive); in the assay with M14 it was > 100 µM (inactive); in the assay with NCI/ADR-RES, > 10 µM (inactive); in the assay with MDA-N, > 100 µM (inactive); in the assay with SW-620, > 100 µM (inactive). In addition, the GI50 in the assay with SF-539 is 34.8 µM (inactive).
Consider `COc1ccc(S(=O)(=O)n2c3c(c4ccccc42)[C@@H]2[C@@H](CCCN2C(=O)C[S+]([O-])c2ccc(C)cc2)[C@H](Cl)C3)cc1` (some centres not stated), for which the GI50 in the assay on CCRF-CEM, in the assay on HCC 2998, in the assay with HCT-116, in the assay with T47D, in the assay on LOX IMVI and in the assay with K562 was > 100 µM (inactive) throughout. Moreover, the GI50 with UACC-257 is > 100 µM (inactive); in the assay with SK-OV-3 it was > 100 µM (inactive); in the assay with NCI-H226, > 100 µM (inactive); in the assay on HOP-92, > 100 µM (inactive); in the assay with Hs-578T it was > 100 µM (inactive); in the assay with HCT-15, more than 100 µM. In addition, the GI50 in the assay with SR, in the assay with CAKI-1, with M14, in the assay on NCI/ADR-RES, in the assay with MDA-N and with SW-620 was > 100 µM (inactive) in each case. In addition, the GI50 in the assay on SF-539 is > 100 µM (inactive).
In the case of `CC(C)(C)OC(=O)N1Cc2cc(O)ccc2C[C@H]1C(=O)O`, the GI50 in the assay with CCRF-CEM, in the assay on HCC 2998, with ACHN, in the assay with HCT-116, in the assay with T47D and in the assay on LOX IMVI was > 100 µM (inactive) each time. The GI50 in the assay on K562, with UACC-257, in the assay on SK-OV-3, in the assay on NCI-H226, in the assay with HOP-92 and in the assay with Hs-578T was > 100 µM (inactive) each time. Also, the GI50 is more than 100 µM in the assay on HCT-15; > 100 µM (inactive) in the assay with SR; > 100 µM (inactive) with CAKI-1; > 100 µM (inactive) in the assay on NCI/ADR-RES; > 100 µM (inactive) in the assay on MDA-N; > 100 µM (inactive) with SW-620. Also, the GI50 in the assay on SF-539 was > 100 µM (inactive).
With `CCNC(=O)CNC(=O)C(Cc1ccc([N+](=O)[O-])cc1)NC(=O)OC(C)(C)C` (configuration not stated) (Boc-[ξPhe(4-NO2)]-Gly-NHEt), the GI50 in the assay with CCRF-CEM is > 100 µM (inactive); with HCC 2998 it was > 100 µM (inactive); in the assay on ACHN it was > 100 µM (inactive); in the assay on HCT-116, > 100 µM (inactive); in the assay with T47D, > 10 µM (inactive); with LOX IMVI, > 100 µM (inactive). The GI50 in the assay on K562 was > 100 µM (inactive); in the assay with SK-OV-3, > 100 µM (inactive); in the assay on NCI-H226, > 100 µM (inactive); in the assay on HOP-92, > 100 µM (inactive); in the assay on Hs-578T it was > 100 µM (inactive); with HCT-15, more than 100 µM. Also, the GI50 in the assay with SR, in the assay with CAKI-1, in the assay on M14, in the assay on NCI/ADR-RES, in the assay on MDA-N and in the assay with SW-620 was > 100 µM (inactive) throughout.
Consider `NC(Cc1c[nH]c2ccccc12)P(=O)(O)O` (configuration not stated), for which the GI50 with CCRF-CEM, in the assay with HCC 2998, with ACHN, with HCT-116, in the assay on T47D and in the assay on K562 was > 100 µM (inactive) in each case. Besides, the GI50 is > 100 µM (inactive) with UACC-257; > 100 µM (inactive) in the assay with SK-OV-3; > 100 µM (inactive) in the assay with NCI-H226; > 10 µM (inactive) with HOP-92; > 100 µM (inactive) in the assay on Hs-578T; more than 100 µM in the assay on HCT-15. For the same compound, the GI50 in the assay with SR, in the assay with CAKI-1, in the assay on M14, in the assay with NCI/ADR-RES, in the assay with MDA-N and in the assay with SW-620 was > 100 µM (inactive) each time. For the same compound, in the assay with SF-539, the GI50 was > 100 µM (inactive).

These data come from ChEMBL document CHEMBL1201862, “PubChem BioAssay data set” (2004).
